tested on: AR / CBP ternary complex; assay: Ternary complex formation assay (sandwich ELISA, AR capture / CBP detection) in VCaP cell lysates; type: cell-based; details: 1.5 hours treatment, sandwich ELISA (AR capture, CBP or p300 detection)
Method: Preparation of Mouse Anti-AR Antibody Coated 96 Well Plates
Black MaxiSorp plates: coat with 50 μL of mouse 1/50 diluted AR antibody (Monoclonal Antibody (AR 441 from Thermo Fisher); diluted in phosphate buffered saline (PBS). Spin the liquid to the bottom of the wells, if necessary. Incubate overnight at 4° C. Next day, wash 3 times with 200 μL of TBST. Block with 200 μL of blocking buffer (5% BSA in TBST) at room temperature for 2 hours (BSA: A4503 or A2153 from Sigma). Wash plates 3 times with TBST. Plates are ready for lysates Preparation of dimerizer treated lysates
Culture cells in 96 wells at 50K VCaP cells/well for at least 3 days. Plate in 5% Omega charcoal stripped FBS in total volume of 200 uL. Treat with bifunctional for 1.5 hours by adding 1 μL of 200× stock in DMSO. Aspirate media/compound. Add and pipet-to-mix 70 μL of 1× AlphaLisa Lysis Buffer to each well (Perkin Elmer, AlphaLISA SureFire Ultra, diluted in water). Pipet up and down when adding lysis buffer to disrupt cells. Let lysis proceed for 30 min at 4° C.
Incubate for 1 hour at room temperature. Flick out the lysates. Wash 3 times with TBST. Add 75 μL of rabbit CBP or p300 antibody to each well (diluted 1:5000 in blocking buffer (5% BSA in TBST). CBP antibody: (D6C5) Rabbit mAb #7389; p300 antibody: (D8Z4E) Rabbit mAb #86377. Incubate overnight at 4° C. Wash 3 times with 300 uL TBST, each time on shaker for 5-10 min. Prepare goat anti-rabbit antibody conjugated to HRP (1/100K dilution in blocking buffer) Invitrogen Catalog number: 32260. Add 75 μL of HRP-conjugated goat anti-rabbit antibody. Incubate at room temperature for 1 hour. Flick out the HRP-antibody mixture. Wash 7-8 times with TBST, each time on shaker for 10 min. Later washes try to overflow the wells so that no residual HRP remains bound to the sides of the well. Prepare and add 75 uL/well of QuantaRed Enhance Chemifluorescent HRP Substrate solution. Immediately read fluorescence on BMG ClarioStar (ex: 570/em 585), and repeat the read in 5 minutes and 15 minutes.

Structure (SMILES)	EC50
CC(=O)N1CCc2c(c(-c3cccc4cc(-c5ccc(CC6CCN(c7ncc(C(=O)NC8C(C)(C)C(Oc9ccc(C#N)c(Cl)c9)C8(C)C)cn7)CC6)nc5)ncc34)nn2C2CCOCC2)C1 (stereo not shown) [Compound 140, 2-[4-[[5-[8-(5-acetyl-1-tetrahydropyran-4-yl-6,7-dihydro-4H-pyrazolo[4,3-c]pyridin-3-yl)-3-isoquinolyl]-2-pyridyl]methyl]-1-piperidyl]-N-[3-(3-chloro-4-cyano-phenoxy)-2,2,4,4-tetramethyl-cyclobutyl]pyrimidine-5-carboxamide]	< 1 nM
CC(=O)N1CCc2c(c(N3CCCc4cc(-c5cnn(C)c5)c(C(F)F)cc43)nn2C2CCC(COC3CCN(c4ncc(C(=O)NC5C(C)(C)C(Oc6ccc(C#N)c(Cl)c6)C5(C)C)cn4)CC3)CC2)C1 (stereo not shown) [Compound 173, 2-[4-[[4-[5-acetyl-3-[7-(difluoromethyl)-6-(1-methylpyrazol-4-yl)-3,4-dihydro-2H-quinolin-1-yl]-6,7-dihydro-4H-pyrazolo[4,3-c]pyridin-1-yl]cyclohexyl]methoxy]-1-piperidyl]-N-[3-(3-chloro-4-cyano-phenoxy)-2,2,4,4-tetramethyl-cyclobutyl]pyrimidine-5-carboxamide]	< 1 nM
CC(=O)N1CCc2c(c(N3CCCc4cc(-c5cnn(C)c5)c(C(F)F)cc43)nn2C2CCC3(CC2)CCN(c2ncc(C(=O)NC4C(C)(C)C(Oc5ccc(C#N)c(Cl)c5)C4(C)C)cn2)C3)C1 (stereo not shown) [Compound 408, 2-[8-[5-acetyl-3-[7-(difluoromethyl)-6-(1-methylpyrazol-4-yl)-3,4-dihydro-2H-quinolin-1-yl]-6,7-dihydro-4H-pyrazolo[4,3-c]pyridin-1-yl]-2-azaspiro[4.5]decan-2-yl]-N-[3-(3-chloro-4-cyano-phenoxy)-2,2,4,4-tetramethyl-cyclobutyl]pyrimidine-5-carboxamide]	> 100 nM
CC(=O)N1CCc2c(c(N3CCCc4cc(-c5cnn(C)c5)c(C(F)F)cc43)nn2C2CCC(N(C)C3CCN(c4ncc(C(=O)NC5C(C)(C)C(Oc6ccc(C#N)c(Cl)c6)C5(C)C)cn4)CC3)CC2)C1 (stereo not shown) [Compound 282, 2-[4-[[4-[5-acetyl-3-[7-(difluoromethyl)-6-(1-methylpyrazol-4-yl)-3,4-dihydro-2H-quinolin-1-yl]-6,7-dihydro-4H-pyrazolo[4,3-c]pyridin-1-yl]cyclohexyl]-methyl-amino]-1-piperidyl]-N-[3-(3-chloro-4-cyano-phenoxy)-2,2,4,4-tetramethyl-cyclobutyl]pyrimidine-5-carboxamide]	< 1 nM
CC(=O)N1CCc2c(c(-c3cccc4cc(-c5ccc(C(=O)N6CCC(OCc7ncc(C(=O)NC8C(C)(C)C(Oc9ccc(C#N)c(Cl)c9)C8(C)C)cn7)C6)nc5)ncc34)nn2C2CCOCC2)C1 (racemic) [Compound 131, N-[3-(3-chloro-4-cyano-phenoxy)-2,2,4,4-tetramethyl-cyclobutyl]-2-[[rac-(3S)-1-[5-[8-(5-acetyl-1-tetrahydropyran-4-yl-6,7-dihydro-4H-pyrazolo[4,3-c]pyridin-3-yl)-3-isoquinolyl]pyridine-2-carbonyl]pyrrolidin-3-yl]oxymethyl]pyrimidine-5-carboxamide]	< 1 nM
CC(=O)N1CCc2c(c(N3CCCc4cc(-c5cnn(C)c5)c(C(F)F)cc43)nn2C2CCN(C(=O)C3CCN(c4ccc(C(=O)NC5C(C)(C)C(Oc6ccc(C#N)c(Cl)c6)C5(C)C)cn4)CC3)CC2)C1 (stereo not shown) [Compound 115, 6-[4-[4-[5-acetyl-3-[7-(difluoromethyl)-6-(1-methylpyrazol-4-yl)-3,4-dihydro-2H-quinolin-1-yl]-6,7-dihydro-4H-pyrazolo[4,3-c]pyridin-1-yl]piperidine-1-carbonyl]-1-piperidyl]-N-[3-(3-chloro-4-cyano-phenoxy)-2,2,4,4-tetramethyl-cyclobutyl]pyridine-3-carboxamide]	< 1 nM
CC(=O)N1CCc2c(c(N3CCCc4cc(-c5cnn(C)c5)c(C(F)F)cc43)nn2C2CCN(C(=O)N3CCN(c4ncc(C(=O)NC5C(C)(C)C(Oc6ccc(C#N)c(Cl)c6)C5(C)C)cn4)CC3)CC2)C1 (stereo not shown) [Compound 112, 2-[4-[4-[5-acetyl-3-[7-(difluoromethyl)-6-(1-methylpyrazol-4-yl)-3,4-dihydro-2H-quinolin-1-yl]-6,7-dihydro-4H-pyrazolo[4,3-c]pyridin-1-yl]piperidine-1-carbonyl]piperazin-1-yl]-N-[3-(3-chloro-4-cyano-phenoxy)-2,2,4,4-tetramethyl-cyclobutyl]pyrimidine-5-carboxamide]	< 1 nM
CC(=O)N1CCc2c(c(N3CCCc4cc(-c5cnn(C)c5)c(C(F)F)cc43)nn2C2CCN(CC3CCN(c4ccc(C(=O)NC5C(C)(C)C(Oc6ccc(C#N)c(Cl)c6)C5(C)C)nn4)CC3)CC2)C1 (stereo not shown) [Compound 117, 6-[4-[[4-[5-acetyl-3-[7-(difluoromethyl)-6-(1-methylpyrazol-4-yl)-3,4-dihydro-2H-quinolin-1-yl]-6,7-dihydro-4H-pyrazolo[4,3-c]pyridin-1-yl]-1-piperidyl]methyl]-1-piperidyl]-N-[3-(3-chloro-4-cyano-phenoxy)-2,2,4,4-tetramethyl-cyclobutyl]pyridazine-3-carboxamide]	1 to 10 nM
CC(=O)N1CCc2c(c(N3CCCc4cc(-c5cnn(C)c5)c(C(F)F)cc43)nn2C2CCN(C3CC4(CCN(c5ncc(C(=O)NC6C(C)(C)C(Oc7ccc(C#N)c(Cl)c7)C6(C)C)cn5)C4)C3)CC2)C1 (stereo not shown) [Compound 346, 2-[2-[4-[5-acetyl-3-[7-(difluoromethyl)-6-(1-methylpyrazol-4-yl)-3,4-dihydro-2H-quinolin-1-yl]-6,7-dihydro-4H-pyrazolo[4,3-c]pyridin-1-yl]-1-piperidyl]-6-azaspiro [3.4]octan-6-yl]-N-[3-(3-chloro-4-cyano-phenoxy)-2,2,4,4-tetramethyl-cyclobutyl]pyrimidine-5-carboxamide]	< 1 nM
COc1cc(OC2C(C)(C)C(NC(=O)c3ccc(N4CCC(N(C)C5CCC(n6nc(N7CCCc8cc(-c9cnn(C)c9)c(C(F)F)cc87)c7c6CCN(C(C)=O)C7)CC5)CC4)cc3)C2(C)C)ccc1C#N (stereo not shown) [Compound 280, 4-[4-[[4-[5-acetyl-3-[7-(difluoromethyl)-6-(1-methylpyrazol-4-yl)-3,4-dihydro-2H-quinolin-1-yl]-6,7-dihydro-4H-pyrazolo[4,3-c]pyridin-1-yl]cyclohexyl]-methyl-amino]-1-piperidyl]-N-[3-(4-cyano-3-methoxy-phenoxy)-2,2,4,4-tetramethyl-cyclobutyl]benzamide]	< 1 nM
CC(=O)N1CCc2c(c(N3CCCc4cc(-c5cnn(C)c5)c(C(F)F)cc43)nn2C2CCC3(CC2)CCN(c2ncc(C(=O)NC4C(C)(C)C(Oc5ccc(C#N)c(Cl)c5)C4(C)C)cn2)C3)C1 (stereo not shown) [Compound 407, 2-[8-[5-acetyl-3-[7-(difluoromethyl)-6-(1-methylpyrazol-4-yl)-3,4-dihydro-2H-quinolin-1-yl]-6,7-dihydro-4H-pyrazolo[4,3-c]pyridin-1-yl]-2-azaspiro[4.5]decan-2-yl]-N-[3-(3-chloro-4-cyano-phenoxy)-2,2,4,4-tetramethyl-cyclobutyl]pyrimidine-5-carboxamide]	10 to 100 nM
COc1cc(OC2C(C)(C)C(NC(=O)c3ccc(N4CCC(C5CCC(n6nc(N7CCCc8cc(-c9cnn(C)c9)c(C(F)F)cc87)c7c6CCN(C(C)=O)C7)CC5)CC4)cc3)C2(C)C)ccc1C#N (stereo not shown) [Compound 258, 4-[4-[4-[5-acetyl-3-[7-(difluoromethyl)-6-(1-methylpyrazol-4-yl)-3,4-dihydro-2H-quinolin-1-yl]-6,7-dihydro-4H-pyrazolo[4,3-c]pyridin-1-yl]cyclohexyl]-1-piperidyl]-N-[3-(4-cyano-3-methoxy-phenoxy)-2,2,4,4-tetramethyl-cyclobutyl]benzamide]	1 to 10 nM
CC(=O)N1CCc2c(c(N3CCCc4cc(-c5cnn(C)c5)c(C(F)F)cc43)nn2C2CCN(C(=O)C3CN(c4ncc(C(=O)NC5C(C)(C)C(Oc6ccc(C#N)c(Cl)c6)C5(C)C)cn4)C3)CC2)C1 (stereo not shown) [Compound 118, 2-[3-[4-[5-acetyl-3-[7-(difluoromethyl)-6-(1-methylpyrazol-4-yl)-3,4-dihydro-2H-quinolin-1-yl]-6,7-dihydro-4H-pyrazolo[4,3-c]pyridin-1-yl]piperidine-1-carbonyl]azetidin-1-yl]-N-[3-(3-chloro-4-cyano-phenoxy)-2,2,4,4-tetramethyl-cyclobutyl]pyrimidine-5-carboxamide]	> 100 nM
